ChEMBL document CHEMBL1201862, “PubChem BioAssay data set” (2004)
Where a name gives a salt, the structure may show the parent alone.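 Values below derive from 48-hour exposures of cells grown in 96-well plates, with endpoints linearly interpolated between the two concentrations bracketing the appropriate inhibition level. GI50 = concentration required for 50% inhibition of growth.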 Active and inactive are the calls of the source. Rule as the data show it: active = GI50 up to about 1.1 µM and inactive = higher.

Key:
Assay in all cases: inhibition of tumour cell growth, NCI panel, 48 h
Malme-3M = tested on: Malme-3M
MCF7 = tested on: MCF7
NCI-H23 = tested on: NCI-H23
SNB-19 = tested on: SNB-19
786-0 = tested on: 786-0
CCRF-CEM = tested on: CCRF-CEM
DU-145 = tested on: DU-145
HT-29 = tested on: HT-29
HCT-116 = tested on: HCT-116
SF-539 = tested on: SF-539
TK-10 = tested on: TK-10
RPMI-8226 = tested on: RPMI-8226
OVCAR-8 = tested on: OVCAR-8
UACC-62 = tested on: UACC-62
MDA-MB-231 = tested on: MDA-MB-231
SK-MEL-28 = tested on: SK-MEL-28
OVCAR-4 = tested on: OVCAR-4
SK-MEL-5 = tested on: SK-MEL-5
HCC 2998 = tested on: HCC 2998
HOP-92 = tested on: HOP-92

Measured: GI50

O=Cc1ccc2[nH]c(=O)oc2c1
inactive: Malme-3M > 100 µM | MCF7 > 100 µM | NCI-H23 > 100 µM | SNB-19 > 100 µM | 786-0 > 100 µM | CCRF-CEM 42.3 µM | DU-145 > 100 µM | HT-29 > 100 µM | HCT-116 > 100 µM | SF-539 > 100 µM | TK-10 > 100 µM | RPMI-8226 > 100 µM | OVCAR-8 > 100 µM | UACC-62 > 100 µM | MDA-MB-231 > 100 µM | SK-MEL-28 > 100 µM

CC1=C(N2CC2)C(=O)c2ccccc2C1=O
active: OVCAR-4 0.918 µM | MCF7 0.249 µM | 786-0 0.871 µM | DU-145 0.116 µM | HT-29 0.394 µM | SK-MEL-5 0.164 µM | OVCAR-8 0.506 µM | UACC-62 0.811 µM
inactive: Malme-3M 1.27 µM | SNB-19 1.21 µM | CCRF-CEM 1.19 µM | HCT-116 1.37 µM | SF-539 1.69 µM | TK-10 2.08 µM | MDA-MB-231 13.8 µM | SK-MEL-28 1.85 µM

CC(C)(C)/N=C1\C(=O)C2(C)CCC1C2(C)C (stereo not drawn)
inactive: OVCAR-4 > 100 µM | Malme-3M > 100 µM | MCF7 16.8 µM | NCI-H23 > 100 µM | SNB-19 > 100 µM | 786-0 > 100 µM | DU-145 > 100 µM | HT-29 > 100 µM | HCT-116 > 100 µM | SF-539 > 100 µM | TK-10 > 100 µM | RPMI-8226 > 100 µM | HCC 2998 > 100 µM | SK-MEL-5 > 100 µM | OVCAR-8 > 100 µM | UACC-62 14.3 µM | MDA-MB-231 > 100 µM | SK-MEL-28 > 100 µM

CC(C)(C)/N=c1/n(C(C)(C)C)oc(=O)n1-c1ccccc1
inactive: OVCAR-4 > 50 µM | Malme-3M > 50 µM | MCF7 > 50 µM | NCI-H23 > 50 µM | SNB-19 > 50 µM | 786-0 > 50 µM | CCRF-CEM > 50 µM | DU-145 > 50 µM | HT-29 > 50 µM | HCT-116 > 50 µM | SF-539 > 50 µM | TK-10 > 50 µM | RPMI-8226 > 50 µM | HOP-92 > 50 µM | SK-MEL-5 > 50 µM | OVCAR-8 > 50 µM | UACC-62 > 50 µM | MDA-MB-231 > 50 µM | SK-MEL-28 > 50 µM

CO/N=C(\C)CCC#Cc1ccccc1C(=O)OC
inactive: OVCAR-4 > 10 µM | Malme-3M > 10 µM | MCF7 > 10 µM | NCI-H23 > 10 µM | SNB-19 > 10 µM | 786-0 > 10 µM | CCRF-CEM > 10 µM | DU-145 > 10 µM | HT-29 > 10 µM | HCT-116 > 10 µM | SF-539 > 10 µM | TK-10 > 10 µM | RPMI-8226 > 10 µM | HCC 2998 > 10 µM | SK-MEL-5 > 10 µM | OVCAR-8 > 10 µM | UACC-62 > 10 µM | MDA-MB-231 > 10 µM | SK-MEL-28 > 10 µM

O=C(O)CC[N+]1=CCC(c2ccccc2)(c2ccccc2)O1
inactive: OVCAR-4 > 100 µM | MCF7 > 100 µM | NCI-H23 > 100 µM | SNB-19 > 100 µM | 786-0 > 100 µM | DU-145 > 100 µM | HT-29 > 100 µM | HCT-116 > 100 µM | SF-539 > 100 µM | TK-10 > 100 µM | HCC 2998 > 100 µM | HOP-92 > 100 µM | SK-MEL-5 > 100 µM | OVCAR-8 > 100 µM | UACC-62 > 100 µM | MDA-MB-231 > 100 µM | SK-MEL-28 > 100 µM

CN(C)/C=N/c1ccc2c3c(cccc13)-c1ccccc1-2
inactive: OVCAR-4 15.7 µM | Malme-3M 18.5 µM | MCF7 16.8 µM | NCI-H23 17.2 µM | SNB-19 14.4 µM | 786-0 12.6 µM | CCRF-CEM 2.23 µM | DU-145 12.7 µM | HT-29 10 µM | HCT-116 15.4 µM | SF-539 12.1 µM | TK-10 13.8 µM | RPMI-8226 10.4 µM | HOP-92 12.4 µM | SK-MEL-5 14.9 µM | OVCAR-8 14.6 µM | UACC-62 18.6 µM | MDA-MB-231 14.3 µM | SK-MEL-28 17.7 µM

CCCCCCn1c(SC)nc(COC(=O)NC)c1COC(=O)NC
inactive: OVCAR-4 9.57 µM | MCF7 20.1 µM | NCI-H23 21.2 µM | SNB-19 16.1 µM | 786-0 15.3 µM | CCRF-CEM > 10 µM | DU-145 16.5 µM | HT-29 20 µM | HCT-116 17.8 µM | SF-539 17.6 µM | TK-10 16.7 µM | RPMI-8226 22.4 µM | SK-MEL-5 16.6 µM | OVCAR-8 17.4 µM | UACC-62 14.8 µM | MDA-MB-231 17.6 µM | SK-MEL-28 17.7 µM

CC(=O)O[C@H]1CC2C(C3CCC(C(C)CCC(N)=O)[C@]31C)[C@H](OC(C)=O)C[C@@H]1CC3(CC[C@]21C)OOC1(CC[C@]2(C)C4C[C@H](OC(C)=O)[C@]5(C)C(C(C)CCC(N)=O)CCC5C4[C@H](OC(C)=O)C[C@@H]2C1)OO3 (stereo partly drawn)
inactive: OVCAR-4 1.83 µM | Malme-3M 2.61 µM | MCF7 1.58 µM | NCI-H23 1.49 µM | SNB-19 2.61 µM | 786-0 1.55 µM | DU-145 1.73 µM | HT-29 1.63 µM | HCT-116 1.33 µM | TK-10 1.8 µM | RPMI-8226 1.22 µM | SK-MEL-5 1.33 µM | OVCAR-8 1.55 µM | MDA-MB-231 1.51 µM
active: HCC 2998 0.966 µM

COC(=O)[C@@]1(C)CCC[C@]2(C(=O)O)C3Cc4occc4[C@H](C)[C@@H]3CCC21 (stereo partly drawn)
inactive: Malme-3M 34.5 µM | MCF7 > 10 µM | NCI-H23 > 100 µM | SNB-19 71.1 µM | 786-0 73.1 µM | CCRF-CEM 22.3 µM | DU-145 44.2 µM | HT-29 29 µM | HCT-116 35.2 µM | SF-539 42.9 µM | TK-10 41 µM | HCC 2998 30.2 µM | HOP-92 29.4 µM | SK-MEL-5 89.1 µM | OVCAR-8 68.1 µM | UACC-62 62.5 µM | MDA-MB-231 > 100 µM | SK-MEL-28 > 100 µM

CCOC(=O)c1ccc(-n2cnc(-c3ccc([N+](=O)[O-])cc3)c2)cc1
inactive: Malme-3M 80.7 µM | MCF7 72.9 µM | NCI-H23 82.6 µM | SNB-19 35.7 µM | 786-0 > 100 µM | CCRF-CEM > 100 µM | DU-145 > 100 µM | HT-29 > 100 µM | HCT-116 31.4 µM | SF-539 > 100 µM | TK-10 33.9 µM | RPMI-8226 > 100 µM | HCC 2998 > 100 µM | SK-MEL-5 25.3 µM | OVCAR-8 > 100 µM | UACC-62 > 100 µM | MDA-MB-231 > 100 µM | SK-MEL-28 > 100 µM

N=C(N)c1ccc(-c2ccc(-c3ccc(C(=N)N)cc3)o2)cc1 [FURAMIDINE HYDROCHLORIDE]
inactive: OVCAR-4 > 100 µM | Malme-3M 18.6 µM | MCF7 17.5 µM | NCI-H23 22 µM | SNB-19 51.9 µM | 786-0 23.2 µM | CCRF-CEM 24.9 µM | DU-145 32.7 µM | HT-29 24.5 µM | HCT-116 28.8 µM | SF-539 37.3 µM | TK-10 24.9 µM | RPMI-8226 18.6 µM | HOP-92 62.4 µM | SK-MEL-5 11.9 µM | OVCAR-8 33.7 µM | UACC-62 25.6 µM | MDA-MB-231 > 100 µM | SK-MEL-28 20.6 µM

CCSCCCC(=O)O
inactive: OVCAR-4 > 100 µM | Malme-3M > 100 µM | MCF7 > 100 µM | NCI-H23 > 100 µM | SNB-19 > 100 µM | 786-0 > 100 µM | CCRF-CEM > 100 µM | DU-145 > 100 µM | HT-29 > 100 µM | HCT-116 > 100 µM | TK-10 > 100 µM | RPMI-8226 > 100 µM | HCC 2998 > 100 µM | SK-MEL-5 > 100 µM | OVCAR-8 > 100 µM | UACC-62 > 100 µM | MDA-MB-231 > 100 µM | SK-MEL-28 > 100 µM

FC1(F)[Se]C2C3CCC(C3)C2C1(F)F (stereo not drawn)
inactive: OVCAR-4 > 100 µM | Malme-3M > 100 µM | MCF7 > 100 µM | SNB-19 > 100 µM | 786-0 > 100 µM | DU-145 > 100 µM | HCT-116 56.2 µM | SF-539 > 100 µM | TK-10 > 100 µM | RPMI-8226 > 100 µM | HCC 2998 > 100 µM | SK-MEL-5 > 100 µM | OVCAR-8 > 100 µM | UACC-62 > 100 µM | MDA-MB-231 > 100 µM | SK-MEL-28 > 100 µM

CN1CCN(CCCN)CC1
inactive: OVCAR-4 > 100 µM | Malme-3M > 100 µM | MCF7 > 100 µM | NCI-H23 > 100 µM | SNB-19 > 100 µM | 786-0 > 100 µM | CCRF-CEM > 100 µM | DU-145 > 100 µM | HT-29 > 100 µM | HCT-116 > 100 µM | TK-10 > 100 µM | RPMI-8226 > 100 µM | SK-MEL-5 > 100 µM | OVCAR-8 > 100 µM | UACC-62 > 100 µM | MDA-MB-231 > 100 µM | SK-MEL-28 > 100 µM

CCCCCCC(O)C(=O)OC1C2C(CC1(C)C)C(O)C13OC1C(O)C1(CO1)[C@@]23C (stereo partly drawn)
inactive: OVCAR-4 22.7 µM | Malme-3M > 100 µM | MCF7 36.4 µM | NCI-H23 58.2 µM | SNB-19 65.2 µM | 786-0 25.4 µM | CCRF-CEM 27.5 µM | DU-145 > 100 µM | HCT-116 47.4 µM | TK-10 44.9 µM | RPMI-8226 40.9 µM | SK-MEL-5 13.4 µM | OVCAR-8 69.8 µM | UACC-62 26 µM | MDA-MB-231 48.6 µM | SK-MEL-28 39.3 µM
